Data as given in patent publication US6358885B1, “Substituted phenylheterocyclic herbicides” (Mississippi State University, priority 1992, dated 2002).

Columns and labels:
Experiment in all cases: Test B preemergence/postemergence greenhouse plant response rating 0 to 10
[1] = tested on: cotton; format: in vivo, Gossypium hirsutum; conditions: for Plant response rating, Cotton: 0 to 10 scale
Procedure, shortened: (§1)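 Test chemicals were sprayed onto freshly planted seed and, concurrently, onto young plants between the one and four leaf stage. After a twelve- to sixteen-day greenhouse period, each species was visually compared with untreated controls.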

[2] = tested on: rape; format: in vivo, Brassica napus; conditions: 0 to 10 scale
Procedure, shortened: as §1

[3] = tested on: blackgrass; format: in vivo, Alopecurus myosuroides; conditions: for Plant response rating, Blackgrass: 0 to 10 scale
Procedure, shortened: as §1

[4] = tested on: rice; format: in vivo, Oryza sativa; conditions: 0 to 10 scale
Procedure, shortened: as §1

[5] = tested on: sorghum; format: in vivo, Sorghum bicolor; conditions: 0 to 10 scale
Procedure, shortened: as §1

[6] = tested on: barley; format: in vivo, Hordeum vulgare; conditions: for Plant response rating, Barley: 0 to 10 scale
Procedure, shortened: as §1

[7] = tested on: cheatgrass; format: in vivo, Bromus secalinus; conditions: for Plant response rating, Cheatgrass: 0 to 10 scale
Procedure, shortened: as §1

[8] = tested on: wheat; format: in vivo, Triticum aestivum; conditions: 0 to 10 scale
Procedure, shortened: as §1

[9] = tested on: bedstraw; format: in vivo, Galium aparine; conditions: for Plant response rating, Bedstraw: 0 to 10 scale
Procedure, shortened: as §1

Structure (SMILES)	Plant response rating (0 to 10 scale), Cotton ([1]; POSTEMERGENCE, Rate 50 g/ha)	Plant response rating, Cotton ([1]; POSTEMERGENCE, Rate 200 g/ha)	Plant response rating, Cotton ([1]; PREEMERGENCE, Rate 50 g/ha)	Plant response rating, Cotton ([1]; Rate 200 g/ha, PREEMERGENCE)	Plant response rating, Rape ([2]; POSTEMERGENCE, Rate 50 g/ha)	Plant response rating, Rape ([2]; POSTEMERGENCE, Rate 200 g/ha)	Plant response rating, Rape ([2]; PREEMERGENCE, Rate 50 g/ha)	Plant response rating, Rape ([2]; Rate 200 g/ha, PREEMERGENCE)	Plant response rating (0 to 10 scale), Blackgrass ([3]; POSTEMERGENCE, Rate 50 g/ha)	Plant response rating, Blackgrass ([3]; POSTEMERGENCE, Rate 200 g/ha)	Plant response rating, Blackgrass ([3]; PREEMERGENCE, Rate 50 g/ha)	Plant response rating, Blackgrass ([3]; Rate 200 g/ha, PREEMERGENCE)	Plant response rating, Rice ([4]; POSTEMERGENCE, Rate 50 g/ha)	Plant response rating, Rice ([4]; POSTEMERGENCE, Rate 200 g/ha)	Plant response rating, Rice ([4]; PREEMERGENCE, Rate 50 g/ha)	Plant response rating, Rice ([4]; Rate 200 g/ha, PREEMERGENCE)	Plant response rating, Sorghum ([5]; POSTEMERGENCE, Rate 50 g/ha)	Plant response rating, Sorghum ([5]; POSTEMERGENCE, Rate 200 g/ha)	Plant response rating, Sorghum ([5]; PREEMERGENCE, Rate 50 g/ha)	Plant response rating, Sorghum ([5]; Rate 200 g/ha, PREEMERGENCE)	further results
Fc1cc(Cl)c(OC2CCCC2)cc1-c1nn2c(c1Cl)CCCC2 [Compound 24]	10	10	3	8	5	7	2	8	2	6	2	8	5	5	0	0	5	6	0	1	Plant response rating (0 to 10 scale), Barley ([6]; POSTEMERGENCE, Rate 50 g/ha): 4; Plant response rating, Barley ([6]; POSTEMERGENCE, Rate 200 g/ha): 4; Plant response rating, Barley ([6]; PREEMERGENCE, Rate 50 g/ha): 0; Plant response rating, Barley ([6]; Rate 200 g/ha, PREEMERGENCE): 0; Plant response rating (0 to 10 scale), Cheatgrass ([7]; POSTEMERGENCE, Rate 50 g/ha): 3; Plant response rating, Cheatgrass ([7]; POSTEMERGENCE, Rate 200 g/ha): 5; Plant response rating, Cheatgrass ([7]; PREEMERGENCE, Rate 50 g/ha): 0; Plant response rating, Cheatgrass ([7]; Rate 200 g/ha, PREEMERGENCE): 4; Plant response rating, Wheat ([8]; POSTEMERGENCE, Rate 50 g/ha): 3; Plant response rating, Wheat ([8]; POSTEMERGENCE, Rate 200 g/ha): 4; Plant response rating, Wheat ([8]; PREEMERGENCE, Rate 50 g/ha): 0; Plant response rating, Wheat ([8]; Rate 200 g/ha, PREEMERGENCE): 1; Plant response rating (0 to 10 scale), Bedstraw ([9]; POSTEMERGENCE, Rate 50 g/ha): 6; Plant response rating, Bedstraw ([9]; POSTEMERGENCE, Rate 200 g/ha): 7; Plant response rating, Bedstraw ([9]; PREEMERGENCE, Rate 50 g/ha): 3; Plant response rating, Bedstraw ([9]; Rate 200 g/ha, PREEMERGENCE): 5
Fc1cc(Cl)c(OCc2ccccc2)cc1-c1nn2c(c1Cl)CCCC2 [Compound 22]	10	10	2	4	4	7	0	1	3	3	0	5	4	5	0	2	5	5	0	3	Plant response rating (0 to 10 scale), Barley ([6]; POSTEMERGENCE, Rate 50 g/ha): 4; Plant response rating, Barley ([6]; POSTEMERGENCE, Rate 200 g/ha): 5; Plant response rating, Barley ([6]; PREEMERGENCE, Rate 50 g/ha): 0; Plant response rating, Barley ([6]; Rate 200 g/ha, PREEMERGENCE): 0; Plant response rating (0 to 10 scale), Cheatgrass ([7]; POSTEMERGENCE, Rate 50 g/ha): 3; Plant response rating, Cheatgrass ([7]; POSTEMERGENCE, Rate 200 g/ha): 4; Plant response rating, Cheatgrass ([7]; PREEMERGENCE, Rate 50 g/ha): 0; Plant response rating, Cheatgrass ([7]; Rate 200 g/ha, PREEMERGENCE): 3; Plant response rating, Wheat ([8]; POSTEMERGENCE, Rate 50 g/ha): 3; Plant response rating, Wheat ([8]; POSTEMERGENCE, Rate 200 g/ha): 4; Plant response rating, Wheat ([8]; PREEMERGENCE, Rate 50 g/ha): 0; Plant response rating, Wheat ([8]; Rate 200 g/ha, PREEMERGENCE): 1; Plant response rating (0 to 10 scale), Bedstraw ([9]; POSTEMERGENCE, Rate 50 g/ha): 8; Plant response rating, Bedstraw ([9]; POSTEMERGENCE, Rate 200 g/ha): 8; Plant response rating, Bedstraw ([9]; Rate 200 g/ha, PREEMERGENCE): 10
